This passage reports IC50 results from US9096565B2, “Inhibitors of histone deacetylase” (MethylGene Inc., priority 2007, dated 2015).

The target of this experiment is one or more of HDAC-4, HDAC-5, HDAC-6, HDAC-7, HDAC-8, HDAC-9, HDAC-10 and HDAC-11. Put plainly: Inhibition of histone deacetylase enzymatic activity (summary statement over isoforms). The note with it: Table 3, selected examples; HDAC isoform not given. Type of experiment: biochemical. In short, it runs like this: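 HDAC enzyme mix with compound was preincubated 5 min at room temperature. Reaction was started at 37 °C with Boc-Lys(trifluoroacetyl)-AMC substrate and run 20-30 min. It was stopped with trypsin (1 mg/mL) plus a known HDAC inhibitor to release the fluorogenic AMC.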

As to `O=C(NO)C(c1ccccc1)c1ccc(C#CCC2CCCC2)cc1` (stereo not drawn) [Compound 2-98, 2-(4-(3-cyclopentylprop-1-ynyl)phenyl)-N-hydroxy-2-phenylacetamide], the IC50 is < 1 µM.

As for `O=C(NO)C(c1ccccc1)c1cccc(-c2ccc(Oc3ccccc3)cc2)c1` (stereo not drawn) [Compound 2-100, N-hydroxy-2-(4′-phenoxybiphenyl-3-yl)-2-phenylacetamide], the IC50 lay within 1 to 15 µM.

Regarding `Cc1cc(-c2ccc(C(C(=O)NO)c3ccccc3)cc2)ccc1F` (stereo not drawn) [Compound 5-45, 2-(4′-fluoro-3′-methylbiphenyl-4-yl)-N-hydroxy-2-phenylacetamide], the IC50 is < 1 µM.

Consider `O=C(NO)C(c1ccccc1)c1ccc(-c2ccc(Cl)cc2)cc1` (stereo not drawn) [Compound 2-112, 2-(4′-chlorobiphenyl-4-yl)-N-hydroxy-2-phenylacetamide], for which the IC50 is < 1 µM.

For `O=C(NO)C(c1ccccc1)c1nnc(C2c3ccccc3Oc3ccccc32)s1` (stereo not drawn) [Compound 5-64, 2-(5-(9H-xanthen-9-yl)-1,3,4-thiadiazol-2-yl)-N-hydroxy-2-phenylacetamide], the IC50 was < 1 µM.

As to `O=C(NO)C(c1ccccc1)N1CCN(C(=O)c2ccccc2)CC1` (stereo not drawn) [Compound 5-42, 2-(4-benzoylpiperazin-1-yl)-N-hydroxy-2-phenylacetamide], the IC50 is 1 to 15 µM.

As to `O=C(NO)C(c1ccccc1)c1ccc(-c2cccnc2)cc1` (stereo not drawn) [Compound 5-12, N-hydroxy-2-phenyl-2-(4-(pyridin-3-yl)phenyl)acetamide], the IC50 is < 1 µM.

With `O=C(NO)C(c1ccccc1)c1ccc(OCc2ccccc2Cl)cc1` (stereo not drawn) [Compound 3-65, 2-(4-(2-chlorobenzyloxy)phenyl)-N-hydroxy-2-phenylacetamide], the IC50 was < 1 µM.

For `O=C(NO)C(c1ccccc1)c1cccc(OCc2ccc(F)cc2)c1` (stereo not drawn) [Compound 2-8, 2-(3-(4-fluorobenzyloxy)phenyl)-N-hydroxy-2-phenylacetamide], the IC50 was < 1 µM.

`COc1ccc(OC(C(=O)NO)c2ccccc2)cc1` (stereo not drawn) [Compound 7-11, N-hydroxy-2-(4-methoxyphenoxy)-2-phenylacetamide] gave an IC50 of 1 to 15 µM.

With `CC(C)N1CCN(c2ccc(C(C(=O)NO)c3ccccc3)cc2)CC1` (stereo not drawn) [Compound 5-93, N-hydroxy-2-(4-(4-isopropylpiperazin-1-yl)phenyl)-2-phenylacetamide], the concentration for half-maximal inhibition (IC50) was < 1 µM.

Consider `O=C(NO)C(c1ccccc1)N1CCN(C(=O)Nc2cccnc2)CC1` (stereo not drawn) [Compound 2-34, 4-(2-(hydroxyamino)-2-oxo-1-phenylethyl)-N-(pyridin-3-yl)piperazine-1-carboxamide], for which the IC50 is 1 to 15 µM.

For `O=C(NO)C(O)(c1ccccc1)c1ccccc1` [Compound 1-28, N,2-dihydroxy-2,2-diphenylacetamide], the half-maximal inhibitory concentration (IC50) is < 1 µM.

`O=C(NO)C(c1ccccc1)N1CCC(c2ccc(F)cc2)CC1` (stereo not drawn) [Compound 5-62, 2-(4-(4-fluorophenyl)piperidin-1-yl)-N-hydroxy-2-phenylacetamide]: the IC50 was < 1 µM.

As for `O=C(NO)C(c1ccccc1)N1CCN(S(=O)(=O)c2ccccc2)CC1` (stereo not drawn) [Compound 5-8, N-hydroxy-2-phenyl-2-(4-(phenylsulfonyl)piperazin-1-yl)acetamide], the IC50 was < 1 µM.

For the compound `O=C(NO)C(c1ccccc1)c1ccc(N2CCN(C(=O)OCc3ccccc3)CC2)cc1` (stereo not drawn) [Compound 5-75, benzyl 4-(4-(2-(hydroxyamino)-2-oxo-1-phenylethyl)phenyl)piperazine-1-carboxylate], the IC50 is < 1 µM.

Regarding `O=C(NO)C(c1ccccc1)c1cccc(OCc2cccc(C(F)(F)F)c2)c1` (stereo not drawn) [Compound 3-42, N-hydroxy-2-phenyl-2-(3-(3-(trifluoromethyl)benzyloxy)phenyl)acetamide], the IC50 was < 1 µM.

With `O=C(NO)C(c1ccccc1)c1nnc(-c2ccccc2Oc2ccccc2)s1` (stereo not drawn) [Compound 5-52, N-hydroxy-2-(5-(2-phenoxyphenyl)-1,3,4-thiadiazol-2-yl)-2-phenylacetamide], the IC50 was < 1 µM.

Compound `O=C(Nc1cccc(C(C(=O)NO)c2ccccc2)c1)C1CCCCC1` (stereo not drawn) [Compound 2-58, N-(3-(2-(hydroxyamino)-2-oxo-1-phenylethyl)phenyl)cyclohexanecarboxamide] showed an IC50 of 1 to 15 µM.

As for `COc1cccc(COc2ccc(C(C(=O)NO)c3ccccc3)cc2)c1` (stereo not drawn) [Compound 2-14, N-hydroxy-2-(4-(3-methoxybenzyloxy)phenyl)-2-phenylacetamide], the concentration for half-maximal inhibition (IC50) was < 1 µM.

Regarding `CC(C)CCNc1ccc(C(C(=O)NO)c2ccccc2)cc1` (stereo not drawn) [Compound 2-77, N-hydroxy-2-(4-(isopentylamino)phenyl)-2-phenylacetamide], the IC50 is < 1 µM.

With `O=C(NO)C(c1ccccc1)c1ccc(N2CCCC2=O)cc1` (stereo not drawn) [Compound 5-106, N-hydroxy-2-(4-(2-oxopyrrolidin-1-yl)phenyl)-2-phenylacetamide], the IC50 was < 1 µM.

In the case of `O=C(NO)C(c1ccccc1)c1ccc(NCc2ccccn2)cc1` (stereo not drawn) [Compound 3-81, N-hydroxy-2-phenyl-2-(4-(pyridin-2-ylmethylamino)phenyl)acetamide], the IC50 is < 1 µM.

Turning to `O=C(NO)C(c1ccccc1)c1ccc(N2Cc3ccccc3C2)cc1` (stereo not drawn) [Compound 5-107, N-hydroxy-2-(4-(isoindolin-2-yl)phenyl)-2-phenylacetamide], the IC50 was < 1 µM.

For `Cc1cccc(C(=O)N2CCCN(C(C(=O)NO)c3ccccc3)CC2)c1` (stereo not drawn) [Compound 2-29, N-hydroxy-2-(4-(3-methylbenzoyl)-1,4-diazepan-1-yl)-2-phenylacetamide], the IC50 is 1 to 15 µM.

`COc1cccc(C(C(=O)NO)c2ccccc2)c1` (stereo not drawn) [Compound 3-21, N-hydroxy-2-(3-methoxyphenyl)-2-phenylacetamide]: the 50% inhibitory concentration (IC50) was in the range of 1 to 15 µM.

Consider `COc1ncc(-c2ccc(C(C(=O)NO)c3ccccc3)cc2)cn1` (stereo not drawn) [Compound 5-92, N-hydroxy-2-(4-(2-methoxypyrimidin-5-yl)phenyl)-2-phenylacetamide], for which the IC50 was < 1 µM.

`O=C(NO)C(c1ccccc1)c1ccc(-c2ccc(F)c(F)c2)cc1` (stereo not drawn) [Compound 5-49, 2-(3′,4′-difluorobiphenyl-4-yl)-N-hydroxy-2-phenylacetamide]: the IC50 was < 1 µM.

As to `O=C(NO)C(c1ccccc1)c1ccc(NCc2ccncc2)cc1` (stereo not drawn) [Compound 2-80, N-hydroxy-2-phenyl-2-(4-(pyridin-4-ylmethylamino)phenyl)acetamide], the IC50 is < 1 µM.

Consider `O=C(NO)C(c1ccc(N2CCOCC2)cc1)c1ccccc1O` (stereo not drawn) [Compound 6-26, N-hydroxy-2-(2-hydroxyphenyl)-2-(4-morpholinophenyl)acetamide], for which the IC50 is 1 to 15 µM.

As for `O=C(NO)C(c1ccccc1)c1ccc(-c2ccc(Oc3ccccc3)cc2)cc1` (stereo not drawn) [Compound 2-117, N-hydroxy-2-(4′-phenoxybiphenyl-4-yl)-2-phenylacetamide], the IC50 was < 1 µM.

With `O=C(NO)C(c1ccccc1)c1cccc(OCc2ccccc2)c1` (stereo not drawn) [Compound 2-6, 2-(3-(benzyloxy)phenyl)-N-hydroxy-2-phenylacetamide], the IC50 was < 1 µM.

With `O=C(NO)C(c1ccccc1)N1CCC(c2cn(Cc3ccccc3)c3ccccc23)CC1` (stereo not drawn) [Compound 5-17, 2-(4-(1-benzyl-1H-indol-3-yl)piperidin-1-yl)-N-hydroxy-2-phenylacetamide], the IC50 was < 1 µM.

Take `O=C(NO)C(Sc1nc2ccccc2s1)c1ccccc1` (stereo not drawn) [Compound 1-24, 2-(benzo[d]thiazol-2-ylthio)-N-hydroxy-2-phenylacetamide]: the IC50 was < 1 µM.

Regarding `CCCc1ccc(C(C(=O)NO)c2ccccc2)cc1` (stereo not drawn) [Compound 5-102, N-hydroxy-2-phenyl-2-(4-propylphenyl)acetamide], the IC50 is < 1 µM.

For the compound `O=C(NO)C(c1ccccc1)c1ccc(NS(=O)(=O)c2ccc(Cl)cc2)cc1` (stereo not drawn) [Compound 2-92, 2-(4-(4-chlorophenylsulfonamido)phenyl)-N-hydroxy-2-phenylacetamide], the half-maximal inhibitory concentration (IC50) was < 1 µM.

Turning to `CC(C)C(=O)ONC(=O)C(c1ccccc1)c1ccc(N2CCOCC2)cc1` (stereo not drawn) [Compound 5-121, N-(isobutyryloxy)-2-(4-morpholinophenyl)-2-phenylacetamide], the concentration for half-maximal inhibition (IC50) was in the range of 1 to 15 µM.

Turning to `O=C(NO)C(c1ccccc1)c1ccc(N2CCN(C/C=C/c3ccccc3)CC2)cc1` (stereo not drawn) [Compound 5-85, (E)-2-(4-(4-cinnamylpiperazin-1-yl)phenyl)-N-hydroxy-2-phenylacetamide], the half-maximal inhibitory concentration (IC50) is < 1 µM.

`O=C(NO)C(c1ccccc1)c1cccc(-c2ccccc2C(F)(F)F)c1` (stereo not drawn) [Compound 2-108, N-hydroxy-2-phenyl-2-(2′-(trifluoromethyl)biphenyl-3-yl)acetamide]: the IC50 is < 1 µM.

Take `O=C(NO)C(c1ccccc1)c1cccc(NCC2CCCCC2)c1` (stereo not drawn) [Compound 2-83, 2-(3-(cyclohexylmethylamino)phenyl)-N-hydroxy-2-phenylacetamide]: the IC50 was in the range of 1 to 15 µM.

With `COc1ccc(-c2cccc(C(C(=O)NO)c3ccccc3)c2)cc1OC` (stereo not drawn) [Compound 2-106, 2-(3′,4′-dimethoxybiphenyl-3-yl)-N-hydroxy-2-phenylacetamide], the IC50 was < 1 µM.

Turning to `O=C(NO)C(Oc1ccc(C(F)(F)F)cc1)c1ccccc1` (stereo not drawn) [Compound 7-44, N-hydroxy-2-phenyl-2-(4-(trifluoromethyl)phenoxy)acetamide], the IC50 fell in the range of 1 to 15 µM.

`O=C(Nc1cccc(C(C(=O)NO)c2ccccc2)c1)c1ccnc(Cl)c1` (stereo not drawn) [Compound 3-14, 2-chloro-N-(3-(2-(hydroxyamino)-2-oxo-1-phenylethyl)phenyl)isonicotinamide] displayed an IC50 of 1 to 15 µM.

For the compound `O=C(Nc1cccc(C(C(=O)NO)c2ccccc2)c1)c1ccccc1` (stereo not drawn) [Compound 2-56, N-(3-(2-(hydroxyamino)-2-oxo-1-phenylethyl)phenyl)benzamide], the IC50 lay within 1 to 15 µM.

For `COCCOCCOc1cccc(C(C(=O)NO)c2ccccc2)c1` (stereo not drawn) [Compound 3-89, N-hydroxy-2-(3-(2-(2-methoxyethoxy)ethoxy)phenyl)-2-phenylacetamide], the IC50 was < 1 µM.
